Data: the NIST ThermoML archive (doi:10.1016/j.jct.2013.09.008)
Numbers after ± are expanded uncertainties.

Legend:
[1] = wn = mass fraction of the nth substance listed; conditions: 101.33 kPa, Liquid; for speed of sound: Frequency=3 MHz, Linear variable-path acoustic interferometer; for mass density: Pycnometric method; for viscosity: Capillary tube (Ostwald / Ubbelohde) method
[2] = 101.33 kPa, Liquid; for speed of sound: Frequency=3 MHz, Linear variable-path acoustic interferometer; for viscosity: Capillary tube (Ostwald / Ubbelohde) method
[3] = mn = molality of the nth substance listed, in mol/kg; conditions: 101.33 kPa, Liquid, m2 = 0; for speed of sound: Frequency=3 MHz, Linear variable-path acoustic interferometer; for viscosity: Capillary tube (Ostwald / Ubbelohde) method

SMILES | speed of sound ([1]; 293.15 K, w1 = 0.025) | mass density ([1]; 293.15 K, w1 = 0.05) | viscosity ([1]; 298.15 K, w1 = 0.025) | viscosity ([1]; 298.15 K, w1 = 0.05) | speed of sound ([1]; 298.15 K, w1 = 0.05) | mass density ([1]; 298.15 K, w1 = 0.025) | mass density ([1]; 298.15 K, w1 = 0.05) | viscosity ([1]; 303.15 K, w1 = 0.025) | viscosity ([1]; 303.15 K, w1 = 0.05) | speed of sound ([1]; 303.15 K, w1 = 0.025) | speed of sound ([1]; 303.15 K, w1 = 0.05) | mass density ([1]; 303.15 K, w1 = 0.025) | mass density ([1]; 303.15 K, w1 = 0.05) | viscosity ([1]; 308.15 K, w1 = 0.025) | viscosity ([1]; 308.15 K, w1 = 0.05) | speed of sound ([1]; 308.15 K, w1 = 0.05) | mass density ([1]; 308.15 K, w1 = 0.025) | mass density ([1]; 308.15 K, w1 = 0.05) | viscosity ([1]; 313.15 K, w1 = 0.025) | viscosity ([1]; 313.15 K, w1 = 0.05) | other results
O=C[C@H](O)[C@@H](O)[C@H](O)[C@H](O)CO [D-glucose] + O | 1492.9 ± 2.5 m/s | 1016.28 ± 0.41 kg/m3 | 0.9202 ± 0.02 mPa·s | 0.9767 ± 0.021 mPa·s | 1514.3 ± 2.5 m/s | 1005.91 ± 0.4 kg/m3 | 1014.69 ± 0.42 kg/m3 | 0.8167 ± 0.017 mPa·s | 0.8605 ± 0.018 mPa·s | 1517.4 ± 2.5 m/s | 1525.1 ± 2.5 m/s | 1004.61 ± 0.41 kg/m3 | 1013.08 ± 0.43 kg/m3 | 0.7324 ± 0.016 mPa·s | 0.7697 ± 0.016 mPa·s | 1535.7 ± 2.5 m/s | 1003.21 ± 0.44 kg/m3 | 1011.47 ± 0.45 kg/m3 | 0.661 ± 0.014 mPa·s | 0.6945 ± 0.015 mPa·s | speed of sound ([1]; 313.15 K, w1 = 0.025): 1536.9 ± 2.5 m/s; speed of sound ([1]; 313.15 K, w1 = 0.05): 1545.6 ± 2.5 m/s; mass density ([1]; 313.15 K, w1 = 0.025): 1001.61 ± 0.46 kg/m3; mass density ([1]; 313.15 K, w1 = 0.05): 1009.85 ± 0.46 kg/m3; viscosity ([1]; 318.15 K, w1 = 0.025): 0.6035 ± 0.013 mPa·s; viscosity ([1]; 318.15 K, w1 = 0.05): 0.6334 ± 0.013 mPa·s; speed of sound ([1]; 318.15 K, w1 = 0.05): 1554.5 ± 2.5 m/s; mass density ([1]; 318.15 K, w1 = 0.025): 999.76 ± 0.49 kg/m3
OC[C@H]1O[C@@](CO)(O[C@H]2O[C@H](CO)[C@@H](O)[C@H](O)[C@H]2O)[C@@H](O)[C@@H]1O [D-sucrose] + O | 1497.2 ± 2.5 m/s | 1018.91 ± 0.42 kg/m3 | 0.9618 ± 0.02 mPa·s | 1.011 ± 0.021 mPa·s | 1516.5 ± 2.5 m/s | 1007.51 ± 0.43 kg/m3 | 1017.19 ± 0.43 kg/m3 | 0.8761 ± 0.019 mPa·s | 0.9129 ± 0.019 mPa·s | 1521.5 ± 2.5 m/s | 1526.6 ± 2.5 m/s | 1005.76 ± 0.44 kg/m3 | 1015.45 ± 0.45 kg/m3 | 0.7969 ± 0.017 mPa·s | 0.8285 ± 0.018 mPa·s | 1537.7 ± 2.5 m/s | 1004.05 ± 0.45 kg/m3 | 1013.72 ± 0.46 kg/m3 | 0.7057 ± 0.015 mPa·s | 0.7457 ± 0.016 mPa·s | speed of sound ([1]; 293.15 K, w1 = 0.05): 1501.4 ± 2.5 m/s; mass density ([1]; 293.15 K, w1 = 0.025): 1009.22 ± 0.42 kg/m3; speed of sound ([1]; 298.15 K, w1 = 0.025): 1511.2 ± 2.5 m/s; speed of sound ([1]; 308.15 K, w1 = 0.025): 1532.1 ± 2.5 m/s; speed of sound ([1]; 313.15 K, w1 = 0.025): 1542.5 ± 2.5 m/s; speed of sound ([1]; 313.15 K, w1 = 0.05): 1547.7 ± 2.5 m/s; mass density ([1]; 313.15 K, w1 = 0.025): 1002.31 ± 0.47 kg/m3; mass density ([1]; 313.15 K, w1 = 0.05): 1011.98 ± 0.47 kg/m3; viscosity ([1]; 318.15 K, w1 = 0.025): 0.6624 ± 0.014 mPa·s; viscosity ([1]; 318.15 K, w1 = 0.05): 0.6946 ± 0.015 mPa·s; speed of sound ([1]; 318.15 K, w1 = 0.025): 1552 ± 2.5 m/s; speed of sound ([1]; 318.15 K, w1 = 0.05): 1557.2 ± 2.5 m/s; mass density ([1]; 318.15 K, w1 = 0.025): 1000.56 ± 0.48 kg/m3; mass density ([1]; 318.15 K, w1 = 0.05): 1010.23 ± 0.48 kg/m3
O=C[C@H](O)[C@@H](O)[C@@H](O)CO [L-arabinose] + O | 1491.4 ± 2.5 m/s | 1016.09 ± 0.41 kg/m3 | 0.9141 ± 0.019 mPa·s | 0.9695 ± 0.021 mPa·s | 1516.9 ± 2.5 m/s | 1005.77 ± 0.42 kg/m3 | 1014.44 ± 0.43 kg/m3 | 0.8116 ± 0.017 mPa·s | 0.8573 ± 0.018 mPa·s | 1517 ± 2.5 m/s | 1526.8 ± 2.5 m/s | 1004.18 ± 0.43 kg/m3 | 1012.79 ± 0.44 kg/m3 | 0.7304 ± 0.016 mPa·s | 0.7658 ± 0.016 mPa·s | 1537.9 ± 2.5 m/s | 1002.6 ± 0.44 kg/m3 | 1011.13 ± 0.45 kg/m3 | 0.6591 ± 0.014 mPa·s | 0.689 ± 0.015 mPa·s | speed of sound ([1]; 293.15 K, w1 = 0.05): 1502.3 ± 2.5 m/s; mass density ([1]; 293.15 K, w1 = 0.025): 1007.35 ± 0.41 kg/m3; speed of sound ([1]; 298.15 K, w1 = 0.025): 1506.7 ± 2.5 m/s; speed of sound ([1]; 308.15 K, w1 = 0.025): 1528.6 ± 2.5 m/s; speed of sound ([1]; 313.15 K, w1 = 0.025): 1536.8 ± 2.5 m/s; speed of sound ([1]; 313.15 K, w1 = 0.05): 1545.7 ± 2.5 m/s; mass density ([1]; 313.15 K, w1 = 0.025): 1001.01 ± 0.45 kg/m3; mass density ([1]; 313.15 K, w1 = 0.05): 1009.46 ± 0.46 kg/m3; viscosity ([1]; 318.15 K, w1 = 0.025): 0.6006 ± 0.013 mPa·s; viscosity ([1]; 318.15 K, w1 = 0.05): 0.6295 ± 0.013 mPa·s; speed of sound ([1]; 318.15 K, w1 = 0.025): 1543.1 ± 2.5 m/s; speed of sound ([1]; 318.15 K, w1 = 0.05): 1551.8 ± 2.5 m/s; mass density ([1]; 318.15 K, w1 = 0.025): 999.43 ± 0.47 kg/m3; mass density ([1]; 318.15 K, w1 = 0.05): 1007.8 ± 0.48 kg/m3
O [water] |  |  |  |  |  |  |  |  |  |  |  |  |  |  |  |  |  |  |  |  | speed of sound ([2]; 293.15 K): 1483.6 ± 2.5 m/s; viscosity ([2]; 298.15 K): 0.8903 ± 0.019 mPa·s; viscosity ([2]; 303.15 K): 0.7973 ± 0.017 mPa·s; speed of sound ([2]; 303.15 K): 1508.4 ± 2.5 m/s; viscosity ([2]; 308.15 K): 0.719 ± 0.015 mPa·s; viscosity ([2]; 313.15 K): 0.6526 ± 0.014 mPa·s; speed of sound ([2]; 313.15 K): 1526.8 ± 2.5 m/s; viscosity ([2]; 318.15 K): 0.5972 ± 0.013 mPa·s; speed of sound ([2]; 318.15 K): 1533 ± 2.5 m/s
O [water] + N[C@@H](Cc1ccccc1)C(=O)O |  |  |  |  |  |  |  |  |  |  |  |  |  |  |  |  |  |  |  |  | speed of sound ([3]; 293.15 K): 1483.6 ± 2.5 m/s; viscosity ([3]; 298.15 K): 0.8903 ± 0.019 mPa·s; viscosity ([3]; 303.15 K): 0.7973 ± 0.017 mPa·s; speed of sound ([3]; 303.15 K): 1508.4 ± 2.5 m/s; viscosity ([3]; 308.15 K): 0.719 ± 0.015 mPa·s; mass density ([3]; 308.15 K, Pycnometric method): 994.07 ± 0.43 kg/m3; viscosity ([3]; 313.15 K): 0.6526 ± 0.014 mPa·s; speed of sound ([3]; 313.15 K): 1526.8 ± 2.5 m/s; viscosity ([3]; 318.15 K): 0.5972 ± 0.013 mPa·s; speed of sound ([3]; 318.15 K): 1533 ± 2.5 m/s
